Entries after “also recorded” stand apart in the source; their conditions may differ.
Legend:
CgnE [1] = test: ICP-MS iron binding to CgnE; set-up: species or system Chondromyces crocatus CM c5; conditions: 5 mM fresh FeCl2, 30 min, PD10 desalting
Procedure: Inductively Couple Plasma-Mass Spectrometry
Experimental solutions were analysed using an Agilent 7500ce fitted with a self-aspire nebuliser tuned for a flow of 0.1 mL min-1 at the Scottish Universities Environmental Research Centre (SUERC).
Samples were initially diluted to a protein concentration of 2 µM in 0.8 M HNO3. CgnB was dialyzed 4 x for 1 h at a dilution of 1 : 5000 in buffer containing 100 mM EDTA prior to analysis. CgnE was incubated with freshly prepared FeCl2 for 30 min (5 mM final FeCl2 concentration) and then subjected to a PD10 desalting column in CgnE buffer before the protein was diluted in HNO3 for analysis. For Fe2+ analysis, flow in the collision cell was set to 2 mL min -1 of H. The metal concentration was calculated by reference to a three -standard calibration line. Each sample value was corrected for procedural blank containing ultrapure water and 0.8 M HNO 3.
CgnB and CgnE sequences were compared with TBLA STN[22] to whole-genome shotgun contigs of taxa listed in (Supplementary table 4). We have retrieved the corresponding genome segments and identified tandem appearances of homologous genes, as well as searched for candidate peptides in their genomic neigh borhood with custom Python and Perl scripts. Phylogenetic trees were constructed with RAxML[23] using the PROTGAMMAJTT model. Bootstrap values were computed using 100 bootstrap […]

CsrA = conditions: in vitro; cited from earlier work
Excerpt: Their biosynthesis begins with the ribosomal expression of a short gene to yield a precursor peptide that usually consists of an N-terminal ‘leader’ and a C-terminal ‘core’ peptide. While the leader peptide is important for substrate recognition by the enzyme(s) installing class-defining modifications, the core peptide is ultimately converted into the final product and can be extensively modified[17]–[19]. Fe ...

CgnD [2] = test: Labeling of CgnD with PMSF (LC-MS); assay type: biochemical, Chondromyces crocatus CM c5; conditions: 10 µM CgnD, 10-fold excess PMSF, room temperature, 10 min
Procedure: All structural images portrayed were rendered in PyMOL (The PyMOL Molecular Graphics System Version 1.8.6.0, Schrödinger, LLC).
Purified, lyophilized 3a/b (see above) was dissolved in 20 mM sodium phosphate pH 7.2 containing 5%
D2O. A similar sample of unmodified CgnA was analyzed for comparison. 1D 1H, 2D {1H,1H} NOESY, TOCSY and DQF-COSY and 2D {13C,1H} HSQC spectra were recorded for each sample on a Bruker AVANCE IIIHD/Ultrashield 600 spectrometer equipped with a TCI cryoprobe using Bruker TopSpin 3.5 software. After excluding peaks from unmodified CgnA in the modified sample, the assignments of the C-terminal residues of the modified CgnA species were made using COSY, TOCSY and inter - residue NOE cross peaks using CCPNMR analysis assign v3. 13C shifts were identified from the HSQC spectra where sensitivity allowed. The majority of the expected resonances were easily identified, but the near-degeneracy of the former tyrosine Hα and Hβ shifts meant that the nOe cross peaks required to identify the stereochemistry at the tyrosine Cβ were not resolved. Indeed, the observation of two separate […]
Phenylmethylsulfonylfluoride (PMSF) can selectively modifying the catalytic serine of serine hydrolases via the formation of a covalent bond with the protein and can therefore be detected even in denaturing LC-MS conditions by a positive mass shift corresponding to the compound[21]. […]

CgnB, CgnC and CgnE = test: In vitro processing of CgnA and variants by CgnB, CgnC and CgnE (LC-MS); assay type: biochemical, Chondromyces crocatus CM c5
Procedure: All biochemical reactions were performed in 150 mM NaCl, 10 mM HEPES, 0.5 mM TCEP, pH 7.4. For CgnA–CgnB–CgnC reactions, a mixture of 50 µM CgnA, 10 µM CgnB, 5 µM CgnC, 4 mM ascorbic acid, 2.5 mM FeCl2 and 1 mM 2-oxoglutaric acid was incubated at 37 °C for 2 h. For CgnA–CgnB–CgnC–CgnE reactions, a mixture of 50 µM CgnA, 10 µM CgnB, 5 µM CgnC, 5 µM CgnE, 4 mM ascorbic acid, 2.5 mM FeCl2 and 1 mM 2-oxoglutaric acid was incubated at 37 °C for 2 h. The standard reaction volume was 50 µl. Proteins were precipitated by adding 50% acetonitrile and freezing the mixture at −80 °C for 2 h prior to liquid chromatography and mass spectrometry (LC-MS) analysis.

CgnB = test: MST binding of CgnA (or leader peptide) to CgnB; set-up: species or system Chondromyces crocatus CM c5
Procedure: (§1) Supplementary Figure 13: Analysis of protein complexes using SEC and MST. a MST measurements to determine KDs of the protein pairs given. X/Y – Affinity of fluorescently labeled X to Y (titrated). + Z: Z was supplied at a constant, high concentration. […]
(§2) Both samples were incubated at room temperature for 10 min prior to LC-MS analysis.
(§3) Microscale Thermophoresis
(§4) MST binding affinity measurements were performed using a Monolith NT 115 system (Nanotemper Technologies) with MO.Control v1.6 software. Labeling of different proteins was performed using the Monolith Labeling Kit RED-NHS 2nd generation according to the manufacturer’s instructions. For this, a 10 µM dilution of the desired protein was prepared in the supplied labeling buffer NHS (130 mM NaHCO3, 50 mM NaCl, pH 8.2). To yield a 600 μM dye solution, 25 μL DMSO was added to dry powder. For the labeling procedure, 7 μL of the freshly prepared dye solution was mixed with 7 μL of […]

CgnE [3] = test: MST binding of CgnA (or leader peptide) to CgnE; set-up: species or system Chondromyces crocatus CM c5
Procedure: as §1, §2, §3, §4
Target sequence in this assay (as listed by the source): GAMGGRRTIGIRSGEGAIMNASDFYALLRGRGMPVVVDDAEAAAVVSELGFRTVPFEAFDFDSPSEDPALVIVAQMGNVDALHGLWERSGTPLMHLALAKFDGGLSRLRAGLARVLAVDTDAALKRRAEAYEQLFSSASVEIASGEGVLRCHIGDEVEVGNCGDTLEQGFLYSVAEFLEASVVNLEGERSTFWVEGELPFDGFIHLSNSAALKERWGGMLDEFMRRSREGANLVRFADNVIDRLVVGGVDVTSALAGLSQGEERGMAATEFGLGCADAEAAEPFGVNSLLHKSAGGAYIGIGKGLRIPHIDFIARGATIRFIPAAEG

CgnD [4] = test: MST binding to CgnD; set-up: species or system Chondromyces crocatus CM c5; conditions: microscale thermophoresis
Target sequence in this assay (as listed by the source): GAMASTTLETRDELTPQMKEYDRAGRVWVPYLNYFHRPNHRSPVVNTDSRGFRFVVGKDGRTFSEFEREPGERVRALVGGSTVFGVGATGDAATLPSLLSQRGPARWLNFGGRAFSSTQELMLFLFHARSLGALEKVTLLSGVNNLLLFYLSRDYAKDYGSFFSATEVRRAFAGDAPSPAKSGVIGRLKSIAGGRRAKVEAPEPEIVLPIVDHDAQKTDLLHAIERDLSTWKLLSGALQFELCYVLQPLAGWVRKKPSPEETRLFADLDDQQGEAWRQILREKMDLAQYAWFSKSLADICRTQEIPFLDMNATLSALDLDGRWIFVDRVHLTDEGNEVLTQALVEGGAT

CgnC = test: MST binding of CgnA to CgnC; set-up: species or system Chondromyces crocatus CM c5; conditions: CgnC titrated
Sequence of CgnC (as listed by the source): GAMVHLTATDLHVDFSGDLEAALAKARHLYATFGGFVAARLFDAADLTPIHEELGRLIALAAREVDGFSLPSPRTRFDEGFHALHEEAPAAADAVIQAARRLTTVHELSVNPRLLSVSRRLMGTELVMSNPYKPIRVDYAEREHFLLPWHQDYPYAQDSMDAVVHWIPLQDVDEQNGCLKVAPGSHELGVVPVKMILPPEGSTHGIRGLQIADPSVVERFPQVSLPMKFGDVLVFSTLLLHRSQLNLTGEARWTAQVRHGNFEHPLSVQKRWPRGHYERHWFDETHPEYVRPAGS
Procedure: as §1, §2, §3, §4

[Cl][Fe][Cl] [FeCl2]
iron bound to CgnE (CgnE [1]): No iron could be detected

CC[C@H](C)[C@H](NC)C(=O)N[C@@H]1C(=O)N2[C@H](C(=O)O)[C@@H](OC(N)=O)[C@@H]3c4ccccc4N([C@@H]1c1ccc(O)cc1)[C@@H]32 [compound 1, crocagin A]
inhibition of CsrA (CsrA): inhibits

O=S(=O)(F)Cc1ccccc1 [phenylmethylsulfonyl fluoride]
covalent labeling of CgnD (CgnD [2]): inability to label CgnD

Ile-Tyr-Trp [core peptide, three-amino-acid core peptide of CgnA (Ile-Tyr-Trp for crocagin)]
turnover of the core peptide with leader peptide in trans (CgnB, CgnC and CgnE; CgnB–CgnC–CgnE reaction, leader peptide added in trans): marginal

MTMKKTIKQISAGDRSKKGNIYW [CgnA]
CgnA–CgnB interaction relative to CgnA–CgnE (CgnB; MST KD 10.5 vs 1.8 µM): five times weaker
CgnA–CgnB KD relative to SPR value (CgnB; MST vs surface plasmon resonance of ref 24): approximately one order of magnitude lower
Kd (CgnB; MST, Monolith NT 115, RED-NHS label, CgnB titrated, three independent samples, mean ± SD, read-out: KD (affinity) of CgnA–CgnB): 10.5 µM
affinity of CgnA–CgnB in presence of CgnE (CgnB; MST, CgnE 250 µM constant, CgnB titrated): No binding; also recorded: we did not observe binding
Kd (CgnE [3]; Monolith NT 115, for CgnA: CgnE titrated, three independent samples, mean ± SD, read-out: KD (affinity) to CgnE): 1.8 µM
weaker binding to CgnE than CgnA (CgnE [3]; leader peptide vs CgnA): ~300 times
binding to CgnD (CgnD [4]): unable to detect binding
affinity of CgnA–CgnC (CgnC): No binding; also recorded: not CgnC, were able to bind CgnA
processing by CgnB, CgnC and CgnE (product formation/turnover) (CgnB, CgnC and CgnE; 50 µM CgnA, 10 µM CgnB, 5 µM CgnC, 5 µM CgnE, 4 mM ascorbic acid, 2.5 mM FeCl2, 1 mM 2-oxoglutaric acid, pH 7.4, 37 °C, 2 h, LC-MS): formation of a major product with high turnover; also recorded: consumption of CgnA (magenta) and the formation of a major product (+14 Da, blue) as well as minor products (+16 Da, green; +30 Da
product formation with CgnB and CgnC (CgnB, CgnC and CgnE; 50 µM CgnA, 10 µM CgnB, 5 µM CgnC, cofactors, 37 °C, 2 h): two additional product peaks detected when compared to CgnA–CgnE or CgnA–CgnC reactions
product formation with CgnC and CgnE (CgnB, CgnC and CgnE; CgnA + CgnC + CgnE with cofactors): formation of an additional, minor peak with a mass shift of +28 Da
product formation with CgnC and cofactors (CgnB, CgnC and CgnE; CgnA + CgnC + FeCl2, ascorbic acid, α-ketoglutarate): a new peak with a mass suggestive of hydroxylation (+16 Da), but the predominant peak remained unmodified CgnA; also recorded: formation of a minor +16 Da species
product formation with CgnC, no cofactors (CgnB, CgnC and CgnE; CgnA + CgnC without FeCl2, ascorbic acid and α-ketoglutarate): did not lead to observable product formation
product formation without CgnC (CgnB, CgnC and CgnE; CgnA with CgnB, CgnE or both, LC-MS): did not result in any observable product peak

Source: article PMC10070186, “Unusual peptide-binding proteins guide pyrroloindoline alkaloid formation in crocagin biosynthesis” (Nature Chemistry, 2023)
